For series [1] the following is noted: cited from earlier work; for absorption: oral; for dose excreted or recovered in the urine: unchanged, intact or active drug.
For series [2] the following is noted: oral and parental routes; cited from earlier work.
A further series relates to MDA-MB-231 cells. In words: Taxol treatment of 231 vector and 231-E1A tumors in nude mice. The class given is in vivo. The text has this:
To establish orthotopic breast cancer model in nude mice, human MDA-MB-231 cells were inoculated into the mammary fat pad (m.f.p.) of mouse. Tumor size were monitored and caculated on a weekly basis.
Expression of E1A enhanced the anti-tumor effect of the chemotherapeutic drug Taxol in nude mice in vivo and prolonged animal survival rate. […] TUNEL labeling of apoptotic cells in the tumor tissues with or without treatment of Taxol also confirms this. The treatment groups included the SN vehicle, SN-liposome-E1A, Taxol alone, and Taxol plus SN-E1A. At least 7 animals were included in each group.

For a further series, the system named is p38. In words: Relative p38 activity (p38-p versus p38-c) after blocking Akt. The class given is cell-based, human. Particulars: 0.1 μM, 4 hours. How it is done: (§1) In order to determine the relationships between the Akt pathway and the p38 pathway, experiments were performed with inhibitors of both pathways. Wortmannin was used to inhibit the Akt pathway. Wortmannin is a drug that inhibits P13K which is a signal protein that is directly upstream of Akt in the Akt pathway. A synthetic compound, SB203580, was used as a p38 specific inhibitor. Cells were serum starved overnight and were then treated with either SB203580 (20 μM) or Wortmannin (0.1 μM) for 4 hours, 8, hours, 16 hours, 24 hours, 36 hours. When p38 activity was blocked by SB203580 for 8 hours, the Akt activity was increased by approximately 3 fold in E1A stable expressing MDA-MB-231 cells. Whereas, when Akt activity was blocked by Wortmannin for 4 hours, the p38 activity was enhanced to approximately 6 fold. The relative p38 activity (p38-p versus p38-c) and relative Akt activity (Akt-p versus Akt-c) are illustrated in FIG. 2A and FIG. 2B respectively.

For another series, the system named is Akt. The experiment in a line: Relative Akt activity (Akt-p versus Akt-c) after blocking p38. The class given is cell-based, human. The conditions noted are these: 20 μM, 8 hours, E1A stable expressing MDA-MB-231 cells. How it is done:
as §1

The next series relates to breast cancer cells. In words: Sensitization to Taxol-mediated cytotoxicity. The class given is cell-based, human. Particulars: blocking p38 activity, together with constitutively active Akt. How it is done:
The indirect measure of the viable cells after exposure to Taxol using the metabolic conversion of tetrazolium salt (MTT) to formazan was used. Cells (3×10^3/well) were seeded in triplicate in 96-well culture plates in 0.2 ml of culture medium and allowed to adhere for 24 h. After exposure to Taxol for a certain period of time, 20 μl of MTT was then added to each well. Cells were cultured for an additional 2 h, and followed by addition of 100 μl of extraction buffer (20% SDS in 50% N,N-dimethyl formamide, pH 4.7). The cells were incubated overnight at 37° C., and the plates were absorbance at 570 nm was measured.

Counter-ions that a name gives are not always drawn. Starred links: 1 amine or outer side, 2 acyl side, 3 side chain; linkers in the order of their positions; H or OH if unused. Positions of bridges follow the written chain, without caps; N, C: chain ends. Non-standard residues stand in square brackets, D forms with d. Residues, ends and D or L forms follow the SMILES beside them. Chains are numbered I, II in the order given. Actinocin(9to1) = Cc1c2oc3c(C)ccc(C(=O)[*:1])c3nc-2c(C(=O)[*:2])c(N)c1=O; NMeV = CN[C@H](C(=O)O)C(C)C; Sar = CNCC(=O)O

For the compound `N.N.[Cl][Pt][Cl]` [Cisplatin], the “absorption” value in series [1] was “not absorbed orally”.

With `COc1cccc2c1C(=O)c1c(O)c3c(c(O)c1C2=O)C[C@@](O)(C(=O)CO)C[C@@H]3O[C@H]1C[C@H](N)[C@H](O)[C@H](C)O1` [Doxorubicin, 5,12-Naphthacenedione, (8s-cis)-10-[(3-amino-2,3,6-trideoxy-a-L-lyxo-hexopyranosyl)oxy]-7,8,9,10-tetrahydro-6,8,11-trihydroxy-8-(hydroxyacetyl)-1-methoxy-hydrochloride], the “absorption” value in series [1] is “absorbed poorly”.

As to `CC[C@]1(O)C[C@@H]2CN(CCc3c([nH]c4ccccc34)[C@@](C(=O)OC)(c3cc4c(cc3OC)N(C)[C@H]3[C@@](O)(C(=O)OC)[C@H](OC(C)=O)[C@]5(CC)C=CCN6CC[C@]43[C@@H]65)C2)C1` [Vinblastine], in series [1], the “absorption” value is on record as “Unpredictable absorption” and the “dose excreted or recovered in the urine” value was “Approximately 15%”.

Regarding `O=P1(N(CCCl)CCCl)NCCCO1` (stereo not shown) [Cyclophosphamide, 2H -1,3,2-Oxazaphosphorin-2-amine, N,N-bis(2-chloroethyl)tetrahydro-, 2-oxide, monohydrate], the local tolerance result in series [2] is on record as “does not cause local vesication, necrosis, phlebitis or even pain”.

As for `CC(=O)O[C@H]1C(=O)[C@@]2(C)[C@H]([C@H](OC(=O)c3ccccc3)[C@]3(O)C[C@H](OC(=O)[C@H](O)[C@@H](NC(=O)c4ccccc4)c4ccccc4)C(C)=C1C3(C)C)[C@]1(OC(C)=O)CO[C@@H]1C[C@@H]2O` [Taxol], the “therapeutic effect of Taxol in E1A tumors versus vector tumors” value in the series with MDA-MB-231 cells (231-E1A cells) was “more dramatic therapeutic effect”. Further, the “tumor growth under Taxol treatment” value in the series with MDA-MB-231 cells (231 vector and 231-E1A tumors) was “repressed tumor growth”.

In the case of `COc1cccc2c1C(=O)c1c(O)c3c(c(O)c1C2=O)C[C@@](O)(C(C)=O)C[C@@H]3O[C@H]1C[C@H](N)[C@H](O)[C@H](C)O1` [Daunorubicin, 5,12-Naphthacenedione, (8S-cis)-8-acetyl-10-[(3-amino-2,3,6-trideoxy-a-L-lyxo-hexanopyranosyl)oxy]-7,8,9,10-tetrahydro-6,8,11-trihydroxy-10-methoxy-, hydrochloride], the “absorption” value in series [1] is recorded as “poor”.

Consider `COC[C@H]1OC(=O)c2coc3c2[C@@]1(C)C1=C(C3=O)[C@@H]2CCC(=O)[C@@]2(C)C[C@H]1OC(C)=O` [Wortmannin], for which the “enhancement of p38 activity” value in the series on p38 is “approximately 6 fold”. For `CO[C@@]12[C@H](COC(N)=O)C3=C(C(=O)C(C)=C(N)C3=O)N1C[C@@H]1N[C@@H]12` [Mitomycin], in series [1], the “dose excreted or recovered in the urine” value is “Approximately 10%”. As for `CC[C@]1(O)C[C@H]2CN(CCc3c([nH]c4ccccc34)[C@@](C(=O)OC)(c3cc4c(cc3OC)N(C=O)[C@H]3[C@@](O)(C(=O)OC)[C@H](OC(C)=O)[C@]5(CC)C=CCN6CC[C@]43[C@@H]65)C2)C1` [Vincristine], in series [1], the “absorption” value is given as “Unpredictable absorption”.

For `Cc1c2oc3c(C)ccc(C(=O)N[C@@H]4C(=O)N[C@H](C(C)C)C(=O)N5CCC[C@H]5C(=O)N(C)CC(=O)N(C)[C@@H](C(C)C)C(=O)O[C@@H]4C)c3nc-2c(C(=O)N[C@@H]2C(=O)N[C@H](C(C)C)C(=O)N3CCC[C@H]3C(=O)N(C)CC(=O)N(C)[C@@H](C(C)C)C(=O)O[C@@H]2C)c(N)c1=O` [Actinomycin D] (I: T[dV]P[Sar][NMeV] / II: T[dV]P[Sar][NMeV]; ester I:1-I:C, II:1-II:C; linker I:N-II:N via Actinocin(9to1)), the “excreted intact into the bile” value in series [1] (in vivo) was “Half of the dose”. The “dose excreted or recovered in the urine” value in series [1] is 10%. For the compound `C[S+]([O-])c1ccc(-c2nc(-c3ccncc3)c(-c3ccc(F)cc3)[nH]2)cc1` (stereo not shown) [SB203580], the “increase of Akt activity” value with Akt is given as “approximately 3 fold”. Moreover, in the series on breast cancer cells, the “effect on the ability of E1A to sensitize cells to Taxol-mediated cytotoxicity” value is “partially abrogated”. In the case of `O=C(O)CCCc1ccc(N(CCCl)CCCl)cc1` [Chlorambucil, 4-[bis(2-chlorethyl)amino] benzenebutanoic acid], in series [1], the “absorption” value was “rapidly and completely absorbed from the gastrointestinal tract”.

The values above are taken from US20020169126A1, “Compositions and methods for inactivating the Akt oncogene and/or activating the p38 pro-apoptotic gene” (priority 2001, published 2002).
